Where two headings read alike, the source gives them in different places.

As a reminder, the IC50 is the concentration at which inhibition is half-maximal. One may read the inhibition as the percentage by which the read-out fell short of the control. The EC50 is the concentration that produces a half-maximal response.

For one assay, the target named is T1, TcoTryR (Trypanosoma congolense, UniProt P13110).
T1 construct: HIS; made in house; host or cells: E. coli
Kind of assay: TryR oxidoreductase activity, DTNB-coupled assay (TcoTryR). It is filed as biochemical. The text has this:
(§1) The DNA coding sequences for Homo sapiens GR, T. brucei TryR, and T. congolense TryR were polymerase chain reaction (PCR)-amplified and cloned in the pRSETA plasmid. The DNA coding for hGR (transcript variant 1; NCBI Reference Sequence: NM_000637.5) was purchased from GeneScript. Genomic DNA from T. congolense parasites was kindly provided by Dr. Stefan Magez (University of Vrije, Brussels). Genomic DNA from the T. brucei S16 cell line was kindly provided by José M. Pérez-Victoria. Instituto de Parasitología y Biomedicina “López—Neyra” CSIC. HIS-tagged recombinant T. brucei and T. congolense TryRs (TbTryR and TcoTryR, respectively) were purified from E. coli as already explained for LiTryR.
(§2) TryR oxidoreductase activity was determined spectrophotometrically using a modified version of the DTNB-coupled assay described by Hamilton et al.[52] Briefly, reactions were carried out at 26 °C in 250 μL of N-(2-hydroxyethyl)piperazine-N′-ethanesulfonic acid (HEPES) buffer (pH 7.5, 40 mM) containing ethylenediaminetetraacetic acid (EDTA) (1 mM), NADP^+ (30 μM), DTNB (25 μM), TS2 (1 μM), NADPH (150 μM), glycerol (0.02%), DMSO (1.75%), and recombinant TryR (7 nM). […] Reactions were started by addition of a mixture of NADPH and TS2.
(§3) TryR oxidoreductase activity was monitored at 26 °C by an increase in absorbance at 412 nm in an EnSpire Multimode Plate Reader (PerkinElmer, Waltham, MA). […] (TNB) concentration was obtained by multiplying the absorbance values by 100 (50 μM TNB generates 0.5 arbitrary units of absorbance at 412 nm). In this DTNB-coupled assay, one molecule of T(SH)2 reduces one molecule of DTNB, producing two TNB molecules. All of the assays were conducted in at least three independent experiments. Data were analyzed using a nonlinear regression model with GraFit 6 software (Erithacus, Horley, Surrey, U.K.).

Another assay has as its target T2, LiTryR dimer (Leishmania infantum, UniProt A4HSF7).
T2 construct: made in house; host or cells: E. coli BL21 (DE3) Rossetta (co-transformed with both plasmids)
The assay is described as follows: biochemical. The note with it: for IC50: 400 nM LiTryR, 16 h at 37 °C, read-out: IC50^dim, LiTryR monomer displacement (dimer quantitation ELISA); for inhibition at 20 µM: read-out: Percentage of inhibition (dimerization) observed at 20 μM, 20 μM compound.

The test system of assay [1] is THP-1 monocyte-derived macrophages. Kind of assay: Cytotoxicity in THP-1 monocyte-derived macrophages (LDH activity). The note with it: Homo sapiens, THP-1; LDH activity. Format: cell-based, human. As for the experimental part:
THP-1 cells were grown in RPMI-1640 medium (Gibco, Leiden, The Netherlands) supplemented with 10% heat-inactivated FCS, antibiotics, 10 mM HEPES, 2 mM glutamine, and 1 mM sodium pyruvate, pH 7.2, at 37 °C and 5% CO2.
THP-1 monocytes were seeded in a 48-well plate at a concentration of 5 × 10^5 cells/mL (250 μL/well) in RPMI complete medium supplemented with phorbol 12-myristate 13-acetate (PMA) (100 ng/mL). Differentiation of THP-1 monocytes to macrophages was allowed for 24 h at 37 °C and 5% CO2. THP-1-derived macrophages were infected with GFP-expressing axenic amastigotes at 5 × 10^6 parasites/mL in RPMI complete medium for 24 h (250 μL/well). Extracellular amastigotes were washed twice with PBS. The remaining extracellular parasites were challenged for 24 h with THP-1 medium supplemented with 10% horse serum (Gibco) instead of FCS. Cells were washed twice with PBS, and treatments were performed in 250 μL of fresh RPMI medium supplemented with 10% horse serum for 72 h at 37 °C and 5% CO2. Afterward, treatments were removed by two PBS washes. Lysis of infected cells was performed with 120 μL of SDS 0.005% (w/v) in PBS. After a 30 min incubation at 37 °C, lysis was stopped by adding RPMI complete medium with PI at 20 μg/mL (120 μL/well). The lysates were transferred to a 96-well plate (200 μL/well), and the GFP^+ amastigotes extracted from the infected cells were acquired by a Beckman Coulter FC500 flow cytometer. Each sample (100 μL) was acquired for 20 s.
Cytotoxicity of THP-1 infected macrophages was determined using an in-house developed lactate dehydrogenase (LDH) activity assay. LDH activity assays from the remaining cell lysates (100 μL/well) were carried out at 37 °C in 250 μL of Tris/HCl buffer (pH 8.9, 50 mM) containing DL-lactate (840 mM), NAD^+ (450 μM), 1-methoxyphenazine methosulfate (45 μM), and nitro blue tetrazolium chloride (40 μM). The color intensity of the generated formazan dye was monitored at 570 nm using an EnSpire Multimode Plate Reader (PerkinElmer, Waltham, MA). CC50 values were calculated using a nonlinear regression model with GraFit 6 software (Erithacus, Horley, Surrey, U.K.).

A further assay addresses T3, TbTryR (Trypanosoma brucei brucei, UniProt P39051).
T3 construct: HIS; made in house; host or cells: E. coli
The assay is described as follows: TryR oxidoreductase activity, DTNB-coupled assay (TbTryR). It is filed as biochemical.
Excerpt: as §1, §2, §3

[2] abbreviates: read-out: IC50, oxidoreductase activity of TbTryR.

T2 sequence (A4HSF7 1-491): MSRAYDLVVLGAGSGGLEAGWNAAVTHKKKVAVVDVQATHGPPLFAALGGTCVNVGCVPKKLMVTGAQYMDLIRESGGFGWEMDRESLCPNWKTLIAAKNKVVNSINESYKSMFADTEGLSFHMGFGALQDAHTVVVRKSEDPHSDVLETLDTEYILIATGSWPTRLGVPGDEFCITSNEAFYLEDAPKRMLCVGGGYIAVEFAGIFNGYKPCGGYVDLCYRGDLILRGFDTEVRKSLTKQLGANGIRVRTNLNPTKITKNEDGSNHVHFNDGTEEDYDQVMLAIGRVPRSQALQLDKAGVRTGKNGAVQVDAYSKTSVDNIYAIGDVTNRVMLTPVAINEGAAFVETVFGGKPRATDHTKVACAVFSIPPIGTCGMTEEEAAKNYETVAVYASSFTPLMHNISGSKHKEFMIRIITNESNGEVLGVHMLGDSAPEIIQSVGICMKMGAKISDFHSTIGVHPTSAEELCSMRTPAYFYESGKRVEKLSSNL
T3 sequence (P39051 whole entry): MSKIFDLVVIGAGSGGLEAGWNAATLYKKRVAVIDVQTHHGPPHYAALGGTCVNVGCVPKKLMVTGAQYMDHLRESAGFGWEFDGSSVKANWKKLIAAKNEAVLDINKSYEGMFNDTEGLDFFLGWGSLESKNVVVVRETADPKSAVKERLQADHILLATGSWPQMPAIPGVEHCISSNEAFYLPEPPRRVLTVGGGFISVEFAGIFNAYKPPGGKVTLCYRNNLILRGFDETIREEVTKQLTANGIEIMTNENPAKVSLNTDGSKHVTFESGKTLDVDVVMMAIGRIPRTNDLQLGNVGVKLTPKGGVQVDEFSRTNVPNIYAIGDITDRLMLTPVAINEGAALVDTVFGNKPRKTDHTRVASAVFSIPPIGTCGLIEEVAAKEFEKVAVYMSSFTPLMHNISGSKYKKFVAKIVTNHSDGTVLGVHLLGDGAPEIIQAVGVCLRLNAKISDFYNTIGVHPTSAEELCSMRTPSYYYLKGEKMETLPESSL
T1 sequence (P13110 whole entry): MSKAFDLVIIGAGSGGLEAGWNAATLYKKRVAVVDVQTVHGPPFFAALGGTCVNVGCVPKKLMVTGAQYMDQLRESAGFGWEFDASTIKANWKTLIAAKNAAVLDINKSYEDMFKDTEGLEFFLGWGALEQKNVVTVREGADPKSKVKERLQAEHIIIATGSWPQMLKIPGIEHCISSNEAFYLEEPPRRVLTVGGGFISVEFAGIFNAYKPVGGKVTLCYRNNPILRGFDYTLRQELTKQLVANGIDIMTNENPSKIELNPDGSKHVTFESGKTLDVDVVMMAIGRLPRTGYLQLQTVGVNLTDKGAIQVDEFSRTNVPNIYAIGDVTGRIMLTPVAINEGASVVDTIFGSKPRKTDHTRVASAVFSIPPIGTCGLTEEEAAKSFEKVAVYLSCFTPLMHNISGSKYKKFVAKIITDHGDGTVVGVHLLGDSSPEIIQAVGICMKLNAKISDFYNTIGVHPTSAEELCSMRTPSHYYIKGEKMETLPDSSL

With `NCCCCc1cn(-c2ccc(-c3nc(CCc4ccc5ccccc5c4)cs3)c(OCCN3CCNC3=O)c2)nn1.O=C(O)C(F)(F)F` [12b, 1-(2-(5-(4-(4-Ammoniumbutyl)-1H-1,2,3-triazol-1-yl)-2-(4-(2-(naphthalen-2-yl)ethyl)thiazol-2-yl)phenoxy)ethyl)imidazolidin-2-one 2,2,2-Trifluoroacetate], the IC50 at TcoTryR was determined as 4.8 ± 1.9 µM; on LiTryR dimer, 7.1 ± 0.6 µM; on TbTryR (setting [2]) it was 9.7 ± 2.1 µM. In addition, the inhibition at 20 µM at LiTryR dimer worked out at 73%. Also, in assay [1], the EC50 was above 75 µM.
The matching figures for `NCCCCc1cn(-c2ccc(-c3nc(CCc4ccc(-c5ccccc5)cc4)cs3)c(OCCN3CCNC3=O)c2)nn1.O=C(O)C(F)(F)F` [12c, 1-(2-(2-(4-(2-([1,1′-Biphenyl]-4-yl)ethyl)thiazol-2-yl)-5-(4-(4-ammoniumbutyl)-1H-1,2,3-triazol-1-yl)phenoxy)ethyl)imidazolidin-2-one 2,2,2-Trifluoroacetate]: 4.8 ± 1.8 µM, 4.8 ± 0.6 µM, 10 ± 2.5 µM, 78% and above 75 µM.
As for `NCCCc1cn(-c2ccc(-c3nc(CCc4ccc(-c5ccccc5)cc4)cs3)c(OCCN3CCNC3=O)c2)nn1.O=C(O)C(F)(F)F` [12i], the IC50 on LiTryR dimer is 10.8 ± 0.1 µM. The EC50 in assay [1] was above 75 µM.
With `NCCCCc1cn(-c2ccc(-c3nc(-c4ccccc4)cs3)c(OCCN3CCNC3=O)c2)nn1.O=C(O)C(F)(F)F` [12n], the IC50 on TcoTryR was determined as 9.3 ± 0.8 µM; at LiTryR dimer, 29 ± 1.5 µM; at TbTryR (setting [2]) it was 12.5 ± 1.9 µM.
Regarding `NCCCCc1cn(-c2ccc(-c3nc(CCc4ccc5c(c4)CCCN5)cs3)c(OCCN3CCNC3=O)c2)nn1.O=C(O)C(F)(F)F.O=C(O)C(F)(F)F` [12q], the concentration for half-maximal inhibition (IC50) on LiTryR dimer was above 75 µM. Moreover, in assay [1], the half-maximal effective concentration (EC50) was above 75 µM.
Regarding `NCCCCc1cn(-c2ccc(-c3nc(CCc4ccc5c(c4)CCO5)cs3)c(OCCN3CCNC3=O)c2)nn1.O=C(O)C(F)(F)F` [12r], the concentration for half-maximal inhibition (IC50) at TcoTryR stood at 10.1 ± 1.4 µM; at LiTryR dimer, 10.7 ± 0.5 µM; against TbTryR, 15 ± 2.9 µM.
For `NCCCCc1cn(-c2ccc(-c3nc(CCc4ccc5oc6ccccc6c5c4)cs3)c(OCCN3CCNC3=O)c2)nn1.O=C(O)C(F)(F)F` [12s], the IC50 at LiTryR dimer came out at 8.8 ± 0.2 µM.
With `NCCCCc1cn(-c2ccc(-c3nc(-c4ccccc4)c(-c4ccccc4)s3)c(OCCN3CCNC3=O)c2)nn1.O=C(O)C(F)(F)F` [19a, 1-(2-(5-(4-(4-Ammoniobutyl)-1H-1,2,3-triazol-1-yl)-2-(4,5-diphenylthiazol-2-yl)phenoxy)ethyl)imidazolidin-2-one 2,2,2-Trifluoroacetate], the IC50 stood at 5.6 ± 0.8 µM at TcoTryR, 7.1 ± 1.7 µM at LiTryR dimer and 7.3 ± 0.6 µM at TbTryR (setting [2]).
Regarding `NCCCCc1cn(-c2ccc(-c3nc(-c4ccc(Oc5ccccc5)cc4)c(-c4ccccc4)s3)c(OCCN3CCNC3=O)c2)nn1.O=C(O)C(F)(F)F` [19c, 1-(2-(5-(4-(4-Ammoniobutyl)-1H-1,2,3-triazol-1-yl)-2-(4-([4-phenyloxyphenyl]-1-yl)-5-phenylthiazol-2-yl)phenoxy)ethyl)imidazolidin-2-one 2,2,2-Trifluoroacetate], the IC50 at LiTryR dimer was 9 ± 0.5 µM. In assay [1], this compound came in with an EC50 above 75 µM.
Regarding `NCCNCc1nccn1-c1ccc(-c2nc(CCc3ccc4ccccc4c3)cs2)c(OCCN2CCNC2=O)c1` [compound 2, reference compound], the inhibition at 20 µM on LiTryR dimer was around 30%. In assay [1], this compound gave an EC50 of 27.9 ± 4.4 µM.
On to `NCCNCc1nccn1-c1ccc(-c2nc(CCc3ccc(-c4ccccc4)cc3)cs2)c(OCCN2CCNC2=O)c1` [compound 3, reference compound], for which the inhibition at 20 µM at LiTryR dimer is around 30%. Moreover, the response in assay [1] was half-maximal at 15.5 ± 1.8 µM (EC50).
`NCCCCc1cn(-c2ccc(-c3nc(-c4cccc(-c5csc(-c6ccc(-n7cc(CCCCN)nn7)cc6OCCN6CCNC6=O)n5)c4)cs3)c(OCCN3CCNC3=O)c2)nn1.O=C(O)C(F)(F)F.O=C(O)C(F)(F)F` [compound 22, 1,1′-((((1,3-Phenylenebis(thiazole-4,2-diyl))bis(5-(4-(4-ammoniobutyl)-1H-1,2,3-triazol-1-yl)-2,1-phenylene))bis(oxy))bis(ethane-2,1-diyl))bis(imidazolidin-2-one)bis(2,2,2-trifluoroacetate)]: the IC50 against TcoTryR came to 0.5 ± 0.1 µM; on LiTryR dimer, 8 ± 0.2 µM; on TbTryR (setting [2]), 1 ± 0.3 µM. Besides, the “fold more potent than 12n, IC50^dim” value at LiTryR dimer (versus monomeric 12n) is 4 fold. In assay [1], this compound yielded an EC50 of 48.4 ± 14.5 µM.
